In ChEMBL document CHEMBL3600282, “Four new ginsenosides from red ginseng with inhibitory activity on melanogenesis in melanoma cells” (Bioorg Med Chem Lett, 2015):
The source made the active and inactive calls. The rule behind the calls is not given here.

Tests used:
[1] = system: B16; assay: Inhibition of alpha-MSH-induced melanogenesis in mouse B16 cells assessed as reduction of melanin content at 25 to 100 uM after 48 hrs; type: functional, cell-based
[2] = Cytotoxicity against mouse B16 cells assessed as cell viability up to 100 uM after 48 hrs by MTT assay; type: cell-based; conditions: read-out: Activity
[3] = system: B16; assay: Inhibition of alpha-MSH-induced melanogenesis in mouse B16 cells assessed as reduction of melanin content at 200 uM after 48 hrs; type: functional, cell-based
[4] = system: B16; assay: Inhibition of alpha-MSH-induced melanogenesis in mouse B16 cells assessed as reduction of melanin content at 100 uM after 48 hrs; type: functional, cell-based
[5] = molecular target: T1, Tyrosinase (Mus musculus) (UniProt P11344); assay: Inhibition of alpha-MSH-induced tyrosinase activity in mouse B16 cells assessed as reduction of melanin content using L-DOPA as substrate after 2 hrs; type: cell-based
T1 sequence (whole entry): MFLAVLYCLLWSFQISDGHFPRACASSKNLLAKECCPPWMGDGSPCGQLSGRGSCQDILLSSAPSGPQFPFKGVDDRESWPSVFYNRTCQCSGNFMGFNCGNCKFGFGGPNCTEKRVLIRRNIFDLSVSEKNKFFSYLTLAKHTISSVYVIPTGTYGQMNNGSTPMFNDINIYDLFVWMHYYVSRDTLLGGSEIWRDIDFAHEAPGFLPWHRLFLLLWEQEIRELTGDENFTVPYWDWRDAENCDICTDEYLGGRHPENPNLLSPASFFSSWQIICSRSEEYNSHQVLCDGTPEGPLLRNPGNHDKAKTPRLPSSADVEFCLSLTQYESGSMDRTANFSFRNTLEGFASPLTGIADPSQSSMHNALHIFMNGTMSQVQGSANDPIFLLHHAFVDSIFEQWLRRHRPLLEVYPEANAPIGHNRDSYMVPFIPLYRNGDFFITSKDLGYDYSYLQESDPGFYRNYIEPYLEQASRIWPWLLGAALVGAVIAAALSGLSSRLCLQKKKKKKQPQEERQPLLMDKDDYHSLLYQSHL

[6] = system: B16; assay: Inhibition of alpha-MSH-induced melanogenesis in mouse B16 cells assessed as reduction of melanin content after 48 hrs; type: functional, cell-based

| inhibition [5] | Compound | inhibition [1] | viability at 48 h [2] [%] | inhibition [3] | inhibition [4] | inhibition [6] |
| --- | --- | --- | --- | --- | --- | --- |
|  | CC(C)=CCC[C@](C)(O)[C@H]1CC[C@]2(C)[C@@H]1[C@H](O)C[C@@H]1[C@@]3(C)CC[C@H](O)C(C)(C)[C@@H]3[C@@H](O[C@@H]3O[C@H](CO)[C@@H](O[C@H]4O[C@H](CO)[C@@H](O)[C@H](O)[C@H]4O)[C@H](O)[C@H]3O)C[C@]12C | inactive | 95 |  |  |  |
|  | OC[C@H]1O[C@@H](Oc2ccc(O)cc2)[C@H](O)[C@@H](O)[C@@H]1O |  |  | Active |  |  |
|  | CCCCOC(=O)[C@H]1O[C@@H](O[C@H]2CC[C@]3(C)[C@H]4CC=C5[C@@H]6CC(C)(C)CC[C@]6(C(=O)O[C@@H]6O[C@H](CO)[C@@H](O)[C@H](O)[C@H]6O)CC[C@@]5(C)[C@]4(C)CC[C@H]3C2(C)C)[C@H](O[C@@H]2O[C@H](CO)[C@@H](O)[C@H](O)[C@H]2O)[C@@H](O)[C@@H]1O | inactive | 95 |  |  |  |
| Dose-dependent effect | COC(/C=C(\C)[C@H]1CC[C@]2(C)[C@@H]1[C@H](O)C[C@@H]1[C@@]3(C)CC[C@H](O[C@@H]4O[C@H](CO)[C@@H](O)[C@H](O)[C@H]4O[C@@H]4O[C@H](CO)[C@@H](O)[C@H](O)[C@H]4O)C(C)(C)[C@@H]3CC[C@]12C)C1OC1(C)C (stereo partly drawn) |  | 95 |  | Active | Dose-dependent effect |
| Dose-dependent effect | CC(=O)OC[C@H]1O[C@@H](O[C@H]2[C@H](O[C@H]3CC[C@]4(C)[C@H]5C[C@@H](O)[C@@H]6[C@@H](/C(C)=C\CC=C(C)C)CC[C@@]6(C)[C@]5(C)CC[C@H]4C3(C)C)O[C@H](CO)[C@@H](O)[C@@H]2O)[C@H](O)[C@@H](O)[C@@H]1O |  | 95 |  | Active | Dose-dependent effect |
